Measured values taken from patent publication US7842703B2, “Substituted benzofused derivatives and their use as vanilloid receptor ligands” (Glenmark Pharmaceuticals S.A., priority 2005, dated 2010).

Target: T1, Human TRPV1 expressing CHO cells (Homo sapiens, UniProt Q8NER1)
T1 construct: expressed in transfected cells; host or cells: CHO cells under G-418 selection
Test: Screening for TRPV1 antagonist using the 45Calcium uptake assay (inhibition of capsaicin induced cellular uptake of radioactive calcium)
Assay type: cell-based
Settings: for inhibition at 1 µM: CHO; for inhibition at 1 µM / % inhibition of ^45Ca uptake at 1 μM: test compound 1 μM, capsaicin 250 nM, relative to maximum ^45Ca uptake induced by capsaicin alone; for IC50: inhibition of capsaicin (250 nM) induced ^45Ca uptake
Protocol: The inhibition of TRPV1 receptor activation was followed as inhibition of capsaicin induced cellular uptake of radioactive calcium which represents calcium influx exclusively through the plasma membrane associated TRPV1 receptor.
Stock solution of capsaicin was made in ethanol and test compounds in 100% DMSO. Stock solutions were diluted to appropriate final concentrations in assay buffer keeping the final DMSO concentration between 0.1% and 0.55%.
^45Ca was used at a final concentration of 2.5 μCi/ml (^45Ca, ICN).
Assay buffer was composed of F-12 DMEM medium supplemented with 1.8 mM CaCl2 (final conc.) and 0.1% Bovine serum albumin. (BSA from SIGMA)
Wash buffer was tyrodes solution supplemented with 0.1% BSA and 1.8 mM calcium. Lysis buffer contained 50 mM Tris-HCl, pH7.5, 150 mM NaCl, 1% Triton X-100, 0.5% deoxycholate and 0.1% Sodium dodicyl sulphate (SDS, SIGMA)
Assay was carried out with some modifications the of procedure as described by Toth et. al. (See Toth A et. al., Life Sciences 73 p 487-498, 2003). Human TRPV1 expressing CHO cells were grown in F-12 DMEM (Dulbecco's modified Eagle's medium—GIBCO) medium with 10% FBS (fetal bovine serum Hyclone), 1% penicillin-streptomycin solution, 400 μg/ml of G-418. Cells were seeded 48 h prior to the assay in 96 well plates so as to get ˜50,000 cells per well on the day of experiment. Plates were incubated at 37° C. in the presence of 5% CO2. Cells were then washed twice with 200 μl of assay buffer and re-suspended in 144 μl of the same. Assay was carried out at 30° C. in total volume of 200 μl. Test compounds were added to the cells fifteen minutes before addition of capsaicin, Final concentration of capsaicin in the assay was 250 nM. After 5 minutes of agonist treatment, drug was washed out and wells rinsed with 300 μl of ice cold wash buffer 3×. The cells were lysed in 50 μl lysis buffer for 20 min. 40 μl of cell lysate was mixed with 150 μl of Microscint PS, left overnight for equilibration. Radioactivity in samples was measured as counts per minute (cpm) using Packard Biosciences Top Count. The drug/vehicle/capsaicin treated ^45Ca uptake values were normalized over basal ^45Ca value. Data was expressed as % inhibition of ^45Ca uptake by test compound with respect to maximum ^45Ca uptake induced by capsaicin alone. IC50 value was calculated from dose response curve by nonlinear regression analysis using GraphPadPRISM software.

T1 sequence (Q8NER1 whole entry): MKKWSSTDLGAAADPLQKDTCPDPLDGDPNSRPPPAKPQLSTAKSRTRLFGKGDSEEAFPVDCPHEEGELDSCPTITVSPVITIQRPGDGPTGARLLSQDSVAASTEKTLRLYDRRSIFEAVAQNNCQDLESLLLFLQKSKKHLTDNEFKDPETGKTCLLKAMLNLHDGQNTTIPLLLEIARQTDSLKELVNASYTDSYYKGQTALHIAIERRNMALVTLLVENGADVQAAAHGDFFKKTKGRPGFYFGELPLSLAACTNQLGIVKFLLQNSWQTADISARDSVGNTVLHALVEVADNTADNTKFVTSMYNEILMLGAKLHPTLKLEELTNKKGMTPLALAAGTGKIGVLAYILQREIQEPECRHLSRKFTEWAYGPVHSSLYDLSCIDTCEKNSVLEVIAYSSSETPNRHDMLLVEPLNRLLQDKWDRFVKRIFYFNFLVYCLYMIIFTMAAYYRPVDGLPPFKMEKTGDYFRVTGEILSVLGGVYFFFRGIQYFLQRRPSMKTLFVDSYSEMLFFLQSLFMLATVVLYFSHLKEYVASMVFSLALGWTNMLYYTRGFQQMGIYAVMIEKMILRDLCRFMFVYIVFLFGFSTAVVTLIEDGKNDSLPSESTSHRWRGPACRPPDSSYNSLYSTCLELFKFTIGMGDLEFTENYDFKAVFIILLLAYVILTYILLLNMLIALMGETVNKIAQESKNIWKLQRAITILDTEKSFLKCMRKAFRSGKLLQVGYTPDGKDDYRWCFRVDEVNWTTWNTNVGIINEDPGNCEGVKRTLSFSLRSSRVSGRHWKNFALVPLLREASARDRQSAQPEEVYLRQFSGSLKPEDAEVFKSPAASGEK

| inhibition at 1 µM [%] | IC50 [nM] | % inhibition of ^45Ca uptake at 1 μM [%] | SMILES |
| --- | --- | --- | --- |
| 142 | – | – | CN1CCC2(CC1)CC(NC(=O)Nc1cccc3cnccc13)c1ccccc1O2 (racemic) [Example 1, (±) 1-{3,4-Dihydro-1′-(methyl)spiro-[2H-1-benzopyran-2,4′-piperidine]-4-yl}-3-(isoquinoline-5-yl)urea] |
| – | 171 | 96.12 | O=C(Nc1cccc2cnccc12)NC1CC2(CCOCC2)Oc2ccccc21 (racemic) [Example 2, (±) 1-(2′,3,3′,4,5′,6′-Hexahydrospiro-[2H]-1-benzopyran-2,4′-pyran-4-yl)-3-(isoquinoline-5-yl)urea] |
| – | 2.89 | 100 | O=C(Nc1cccc2cnccc12)NC1CC2(CCC2)Oc2ccccc21 (racemic) [Example 3, (±) 1-(3,4-Dihydro-spiro-[2H-1-benzopyran-2,1′-cyclobutan]-4-yl)-3-(isoquinolin-5-ylurea] |
| > 50 | 339 | – | O=C(Nc1ccc(Cl)c2cnccc12)NC1CC2(CCC2)Oc2ccccc21 (racemic) [Example 6, (±) 1-(3,4-dihydro-spiro[2H-1-benzopyran-2,1′-cyclobutane]-4-yl)-3-(8-chloroisoquinolin-5-ylurea] |
| > 50 | 183 | – | Cc1cc2c(NC(=O)NC3CC4(CCC4)Oc4ccccc43)cccc2cn1 (racemic) [Example 7, (±) 1-(3,4-Dihydro-spiro[2H-1-benzopyran-2,1′-cyclobutane]-4-yl)-3-(3-methylisoquinolin-5-yl)urea] |
| > 50 | 551 | – | Cc1nccc2c(NC(=O)NC3CC4(CCC4)Oc4ccccc43)cccc12 (racemic) [Example 8, (±) 1-(3,4-Dihydro-spiro[2H-1-benzopyran-2,1′-cyclobutane]-4-yl)-3-(1-methylisoquinolin-5-yl)urea] |
| > 50 | 103 | – | O=C(Nc1cccc2c[n+]([O-])ccc12)NC1CC2(CCC2)Oc2ccccc21 (racemic) [Example 9, (±) 1-(3,4-Dihydro-spiro[2H-1-benzopyran-2,1′-cyclobutane]-4-yl)-3-(2-oxoisoquinolin-5-yl)urea] |
| < 50 | – | – | O=C(Nc1nc2ccc(Cl)cc2s1)NC1CC2(CCC2)Oc2ccccc21 (racemic) [Example 11, (±) 1-(3,4-Dihydro-spiro[2H-1-benzopyran-2,1′-cyclobutane]-4-yl)-3-(6-chloro-1,3-benzothiazol-2-yl)urea] |
| > 50 | 147 | – | Cn1ncc2cc(NC(=O)NC3CC4(CCC4)Oc4ccccc43)ccc21 (racemic) [Example 13, (±) 1-(3,4-Dihydro-spiro[2H-1-benzopyran-2,1′-cyclobutane]-4-yl)-3-(1-methyl-1H-indazol-5-yl)urea] |
| < 50 | – | – | COc1ccc2nc(NC(=O)NC3CC4(CCC4)Oc4ccccc43)sc2c1 (racemic) [Example 14, (±) 1-(3,4-Dihydro-spiro[2H-1-benzopyran-2,1′-cyclobutane]-4-yl)-3-(6-methoxy-1,3-benzothiazol-2-yl)urea] |
| < 50 | – | – | Cn1cc2cc(NC(=O)NC3CC4(CCC4)Oc4ccccc43)ccc2n1 (racemic) [Example 15, (±) 1-(3,4-Dihydro-spiro[2H-1-benzopyran-2,1′-cyclobutane]-4-yl)-3-(2-methyl-2H-indazol-5-yl)urea] |
| > 50 | 797 | – | CC(C)(C)c1nnc(NC(=O)NC2CC3(CCC3)Oc3ccccc32)s1 (racemic) [Example 16, (±) 1-(3,4-Dihydro-spiro[2H-1-benzopyran-2,1′-cyclobutane]-4-yl)-3-(5-tert-butyl-1,3,4-thiadiazol-2-yl)urea] |
| – | – | <50 | O=C(Nc1ncc(-c2ccc(Br)cc2)s1)NC1CC2(CCC2)Oc2ccccc21 (racemic) [Example 17, (±) 1-(3,4-Dihydro-spiro[2H-1-benzopyran-2,1′-cyclobutane]-4-yl)-3-[5-(4-bromophenyl)-1,3-thiazol-2-yl])urea] |
| < 50 | – | – | Cc1ccc2nc(NC(=O)NC3CC4(CCC4)Oc4ccccc43)sc2c1 (racemic) [Example 18, (±) 1-(3,4-Dihydro-spiro[2H-1-benzopyran-2,1′-cyclobutane]-4-yl)-3-(6-methyl-1,3-benzothiazol-2-yl)urea] |
| < 50 | – | – | CC(=O)n1ncc2cc(NC(=O)NC3CC4(CCC4)Oc4ccccc43)ccc21 (racemic) [Example 19, (±) 1-(3,4-Dihydro-spiro[2H-1-benzopyran-2,1′-cyclobutane]-4-yl)-3-(1-acetyl-1H-indazol-5-yl)urea] |
| – | – | <50 | O=C(Nc1nnc(-c2ccc(Br)cc2)s1)NC1CC2(CCC2)Oc2ccccc21 (racemic) [Example 21, (±) 1-(3,4-Dihydro-spiro[2H-1-benzopyran-2,1′-cyclobutane]-4-yl)-3-([5-(4-bromophenyl)-1,3,4-thiadiazol-2-yl]-)urea] |
| < 50 | – | – | Cc1cc(C)nc(NC(=O)NC2CC3(CCC3)Oc3ccccc32)n1 (racemic) [Example 22, (±) 1-(3,4-Dihydro-spiro[2H-1-benzopyran-2,1′-cyclobutane]-4-yl)-3-(4,6-dimethylpyrimidin-2-yl)urea] |
| < 50 | – | – | O=C(Nc1nc2cc(Cl)ccc2o1)NC1CC2(CCC2)Oc2ccccc21 (racemic) [Example 23, (±) 1-(3,4-Dihydro-spiro[2H-1-benzopyran-2,1′-cyclobutane]-4-yl)-3-(5-chloro-1,3-benzoxazol-2-yl)urea] |
| < 50 | – | – | O=C(Nc1nnc(-c2ccc([N+](=O)[O-])cc2)s1)NC1CC2(CCC2)Oc2ccccc21 (racemic) [Example 24, (±) 1-(3,4-Dihydro-spiro[2H-1-benzopyran-2,1′-cyclobutane]-4-yl)-3-(5-(4-nitrophenyl)-1,3,4-thiadiazol-2-yl)urea] |
| < 50 | – | – | O=C(NCc1ccco1)NC1CC2(CCC2)Oc2ccccc21 (racemic) [Example 25, (±) 1-(3,4-Dihydro-spiro[2H-1-benzopyran-2,1′-cyclobutan]-4-yl)-3-(2-furylmethyl)urea] |
| 19.8 | – | – | O=C(Nc1cccc2ncccc12)NC1CC2(CCC2)Oc2ccccc21 (racemic) [Example 26, (±) 1-(3,4-Dihydrospiro[2H-1-benzopyran-2,1′-cyclobutan]-4-yl)-3-(quinolin-5-yl)urea] |
| 46.9 | – | – | O=C(Nc1cccc2ccncc12)NC1CC2(CCC2)Oc2ccccc21 (racemic) [Example 27, (±) 1-(3,4-Dihydrospiro[2H-1-benzopyran-2,1′-cyclobutan]-4-yl)-3-(isoquinolin-8-yl)urea] |
| < 50 | – | – | O=C(NCc1cccnc1)NC1CC2(CCC2)Oc2ccccc21 (racemic) [Example 31, (±) 1-(3,4-Dihydro-spiro[2H-1-benzopyran-2,1′-cyclobutan]-4-yl)-3-(pyridin-3-ylmethyl)urea] |
| < 50 | – | – | O=C(NCc1ccccn1)NC1CC2(CCC2)Oc2ccccc21 (racemic) [Example 32, (±) 1-(3,4-Dihydro-spiro[2H-1-benzopyran-2,1′-cyclobutane]-4-yl)-3-(pyridin-2-ylmethyl)urea] |
| > 50 | 123 | – | Cc1ccc2c(c1)C(NC(=O)Nc1cccc3cnccc13)CC1(CCC1)O2 (racemic) [Example 40, (±)-1-(3,4-Dihydro-6-methyl-spiro[2H-1-benzopyran-2,1′-cyclobutane]-4-yl)-3-(isoquinolin-5-yl)urea] |
| > 50 | 0.48 | – | Cc1ccc2c(c1)OC1(CCC1)CC2NC(=O)Nc1cccc2cnccc12 (racemic) [Example 41, (±) 1-(3,4-Dihydro-7-methyl-spiro[2H-1-benzopyran-2,1′-cyclobutane]-4-yl-3-(isoquinolin-5-yl)urea] |
| > 50 | 11.9 | – | O=C(Nc1cccc2cnccc12)NC1CC2(CCC2)Oc2ccc(F)cc21 (racemic) [Example 42, (±) 1-(3,4-Dihydro-6-fluoro-spiro[2H-1-benzopyran-2,1′-cyclobutane]-4-yl)-3-(isoquinolin-5-yl)urea] |

| SMILES | inhibition at 1 µM [%] | IC50 [nM] | % inhibition of ^45Ca uptake at 1 μM [%] |
| --- | --- | --- | --- |
| O=C(Nc1csc2cnccc12)NC1CC2(CCC2)Oc2ccccc21 (racemic) [Example 20, (±) 1-(3,4-Dihydro-spiro[2H-1-benzopyran-2,1′-cyclobutane]-4-yl)-3-(thieno[2,3-c]pyridine-3-ylurea] | – | – | <50 |
